Test system: 324938-238-R-J1-PDC complex spheroid growth, % test/control
Experiment: Anticancer human tumor 324938-238-R-J1-PDC patient-derived bladder carcinoma cell line growth inhibition [AhR]
Conditions: for IC50: curve of first compound; for viability, T/C: stronger effect = lower value; active = viability on the fitted dose curve at most 10% of control; inactive = the rest
Source text: Multicellular complex tumor spheroid response to aryl hydrocarbon receptor antagonists in combination with a variety of drugs and investigational agents in selected tumor cell lines
The current study was undertaken to assess response to aryl hydrocarbon receptor antagonists in combination with standard-of-care drugs and investigational agents in solid tumor complex spheroid models. Complex spheroids include a stromal component modeled by human endothelial cells (HUVEC) and fibroblasts modeled by human mesenchymal stem cells (MSCs). The concentration ranges selected for each drug and investigational agent were based upon clinically achievable concentrations if the clinical Cmax of the agent was known.
Compounds. The drugs and investigational agents: BAY 2416964 (NSC825713), GNF351 (NSC835774), CH-223191 (NSC835775), CPI-455 (NSC825282), aza-TdCyd (NSC777586), decitabine (NSC127716), belinostat (NSC758774), entinostat (NSC756642), pevonedistat (NSC761192), tazemetostat (NSC777109), talazoparib (NSC765396), olaparib (NSC753686), selinexor (NSC780203), nedisertib (M3814, NSC802822), bortezomib (NSC756655), venetoclax (NSC766270), doxorubicin (NSC123127), elimusertib (BAY189344, NSC800525), ceralasertib (AZD6738, NSC777638), TAK-243 (NSC785004), alisertib (NSC759677), etoposide (NSC141540), topotecan (NSC609699), eribulin (NSC707389), gemcitabine (NSC613327), carboplatin (NSC241240), cisplatin (NSC119875), and SN-38 (NSC673596) were obtained from the National Cancer Institute (NCI) Developmental Therapeutics Program Chemical Repository (32). The FDA-approved anticancer drug set is available from the Developmental Therapeutics Program at https://dtp.cancer.gov/organization/dscb/obtaining/available plates.htm. […] The stock solutions were prepared in dimethyl sulfoxide (DMSO, Sigma-Aldrich, St. Louis, MO, cat. D2650), except for the platinum compounds which were prepared in saline (Quality Biological, Gaithersburg, MD, cat. 114-055-101), at 800-fold the tested concentration and stored at -70 degrees C prior to their use. All drugs and investigational agents were tested over a range starting from a high concentration at or near the clinical Cmax and decreasing in half-log increments. If the clinical Cmax for an agent had not been determined, the highest concentration tested was 10 microM (Table 1).
Cell Culture. All cells were maintained in an incubator at 37 degrees C and 5% CO2 with 95% humidity. The PDC lines were cultured according to standard operating procedures established by the NCI PDMR (https://pdmr.cancer.gov). Briefly, all PDCs were thawed and cultured in Matrigel-coated flasks prepared with a working solution of 1X Ham's F-12 nutrient mix, without supplementation (Invitrogen, Waltham, MA, cat. 11765054), 100 U/mL penicillin-streptomycin (Invitrogen, cat. 15140122), and 2.5% Matrigel (Corning Inc., Corning, NY, cat. 354248) for the first three passages. All PDCs were cultured in complete DMEM/F-12 media containing advanced DMEM/F-12 (Invitrogen, cat. 12634028), 4.9% defined fetal bovine serum, heat inactivated (HyClone Laboratories Inc., Logan, UT, cat. SH30070.03HI), 389 ng/mL hydrocortisone (Sigma-Aldrich, cat. H4001), 9.7 ng/mL human EGF recombinant protein (Invitrogen, cat. PHG0313), 23.4 microg/mL adenine (Sigma-Aldrich, cat. A2786), 97.3 U/mL penicillin-streptomycin (Invitrogen, cat. 15140122), 1.9 mM L-glutamine (Invitrogen, cat. 25030081), and 9.7 microM Y-27632 dihydrochloride (Tocris Bioscience, Bristol, United Kingdom, cat. 1254). The PDCs were cultured in complete DMEM/F12 media without 10 microM Y-27632 dihydrochloride for at least two passages prior to the screen. The established cell lines NCI-H1341 and […] were cultured in DMEM/F-12, HEPES (Invitrogen, cat. 11330032), 5% defined fetal bovine serum (HyClone Laboratories Inc., cat. SH30070.03), ITS premix universal culture supplement [insulin (5 microg/mL), transferrin (5 microg/mL), and selenious acid (5 ng/mL)] […]

[1] = second compound 0.1 µM, first compound 0.00949 µM
[2] = second compound 0.1 µM, first compound 0.03 µM
[3] = second compound 0.1 µM, first compound 0.0949 µM
[4] = second compound 0.1 µM, first compound 0.3 µM
[5] = second compound 0.316 µM, first compound 0.00949 µM
[6] = second compound 0.316 µM, first compound 0.03 µM
[7] = second compound 0.316 µM, first compound 0.0949 µM
[8] = second compound 0.316 µM, first compound 0.3 µM
[9] = second compound 1 µM, first compound 0.00949 µM
[10] = second compound 1 µM, first compound 0.03 µM
[11] = second compound 1 µM, first compound 0.0949 µM
[12] = second compound 1 µM, first compound 0.3 µM
[13] = second compound 3.16 µM, first compound 0.00949 µM
[14] = second compound 3.16 µM, first compound 0.03 µM
[15] = second compound 3.16 µM, first compound 0.0949 µM
[16] = second compound 3.16 µM, first compound 0.3 µM
[17] = second compound 10 µM, first compound 0.00949 µM
[18] = second compound 10 µM, first compound 0.03 µM
[19] = second compound 10 µM, first compound 0.0949 µM
[20] = second compound 10 µM, first compound 0.3 µM
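Also: spheroids exposed to agents for seven days before viability read.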

Nc1ccccc1NC(=O)c1ccc(CNC(=O)OCc2cccnc2)cc1 + Cc1ccccc1N=Nc1ccc(NC(=O)c2ccnn2C)c(C)c1
3.09 µM: IC50 (second compound 10 µM)
3.83 µM: IC50 (second compound 1 µM)
2.75 µM: IC50 (second compound 3.16 µM)
1.74 µM: IC50 (second compound 0.316 µM)
inactive: viability, T/C (second compound 0.1 µM, first compound 0.0316 µM) 104% | viability, T/C (second compound 0.1 µM, first compound 0.1 µM) 118% | viability, T/C (second compound 0.1 µM, first compound 0.316 µM) 98.1% | viability, T/C (second compound 0.1 µM, first compound 1 µM) 62.1% | viability, T/C (second compound 0.1 µM, first compound 3.16 µM) 48.6% | viability, T/C (second compound 0.1 µM, first compound 10 µM) 38.3% | viability, T/C (second compound 0.316 µM, first compound 0.0316 µM) 93.7% | viability, T/C (second compound 0.316 µM, first compound 0.1 µM) 110% | viability, T/C (second compound 0.316 µM, first compound 0.316 µM) 104% | viability, T/C (second compound 0.316 µM, first compound 1 µM) 55.5% | viability, T/C (second compound 0.316 µM, first compound 3.16 µM) 50.2% | viability, T/C (second compound 0.316 µM, first compound 10 µM) 37.8% | viability, T/C (second compound 1 µM, first compound 0.0316 µM) 91.8% | viability, T/C (second compound 1 µM, first compound 0.1 µM) 94.5% | viability, T/C (second compound 1 µM, first compound 0.316 µM) 85.8% | viability, T/C (second compound 1 µM, first compound 1 µM) 64.6% | viability, T/C (second compound 1 µM, first compound 3.16 µM) 56% | viability, T/C (second compound 1 µM, first compound 10 µM) 38% | viability, T/C (second compound 3.16 µM, first compound 0.0316 µM) 82.9% | viability, T/C (second compound 3.16 µM, first compound 0.1 µM) 102% | viability, T/C (second compound 3.16 µM, first compound 0.316 µM) 79.1% | viability, T/C (second compound 3.16 µM, first compound 1 µM) 58.4% | viability, T/C (second compound 3.16 µM, first compound 3.16 µM) 53.7% | viability, T/C (second compound 3.16 µM, first compound 10 µM) 43.1% | viability, T/C (second compound 10 µM, first compound 0.0316 µM) 86.8% | viability, T/C (second compound 10 µM, first compound 0.1 µM) 91.4% | viability, T/C (second compound 10 µM, first compound 0.316 µM) 77.4% | viability, T/C (second compound 10 µM, first compound 1 µM) 57.7% | viability, T/C (second compound 10 µM, first compound 3.16 µM) 56.4% | viability, T/C (second compound 10 µM, first compound 10 µM) 40.5%
2.23 µM: IC50 (second compound 0.1 µM)

CCN(c1cc(-c2ccc(CN3CCOCC3)cc2)cc(C(=O)NCc2c(C)cc(C)[nH]c2=O)c1C)C1CCOCC1 + Cc1cncc(-c2nc(NCCc3c[nH]c4ccccc34)c3ncn(C(C)C)c3n2)c1
< 0.00949 µM: IC50 (second compound 10 µM)
inactive: viability, T/C [1] 106% | viability, T/C [2] 135% | viability, T/C [3] 123% | viability, T/C [4] 104% | viability, T/C (second compound 0.1 µM, first compound 0.949 µM) 106% | viability, T/C (second compound 0.1 µM, first compound 3 µM) 156% | viability, T/C [5] 94.5% | viability, T/C [6] 89.3% | viability, T/C [7] 112% | viability, T/C [8] 105% | viability, T/C (second compound 0.316 µM, first compound 0.949 µM) 109% | viability, T/C (second compound 0.316 µM, first compound 3 µM) 112% | viability, T/C [9] 83.9% | viability, T/C [10] 118% | viability, T/C [11] 117% | viability, T/C [12] 109% | viability, T/C (second compound 1 µM, first compound 0.949 µM) 94% | viability, T/C (second compound 1 µM, first compound 3 µM) 108% | viability, T/C [13] 102% | viability, T/C [14] 102% | viability, T/C [15] 124% | viability, T/C [16] 86.3% | viability, T/C (second compound 3.16 µM, first compound 0.949 µM) 110% | viability, T/C (second compound 3.16 µM, first compound 3 µM) 93.8% | viability, T/C [17] 12.1% | viability, T/C [18] 15.5% | viability, T/C [19] 15.5% | viability, T/C [20] 17.9% | viability, T/C (second compound 10 µM, first compound 0.949 µM) 8.72% | viability, T/C (second compound 10 µM, first compound 3 µM) 7.72%
> 3 µM: IC50 (second compound 0.1 µM) | IC50 (second compound 0.316 µM) | IC50 (second compound 1 µM) | IC50 (second compound 3.16 µM)

CCc1c2c(nc3ccc(O)cc13)-c1cc3c(c(=O)n1C2)COC(=O)[C@]3(O)CC + CC(CO)NC(=O)c1cc(-c2ccc(Cl)cc2)nn(-c2cnn(C)c2)c1=O
inactive: viability, T/C (second compound 0.1 µM, first compound 0.000949 µM) 41.3% | viability, T/C (second compound 0.1 µM, first compound 0.003 µM) 28.7% | viability, T/C [1] 15.3% | viability, T/C [2] 17.3% | viability, T/C [3] 17.4% | viability, T/C [4] 15.9% | viability, T/C (second compound 0.316 µM, first compound 0.000949 µM) 37.5% | viability, T/C (second compound 0.316 µM, first compound 0.003 µM) 31% | viability, T/C [5] 17.1% | viability, T/C [6] 16.9% | viability, T/C [7] 15.8% | viability, T/C [8] 18.6% | viability, T/C (second compound 1 µM, first compound 0.000949 µM) 43.3% | viability, T/C (second compound 1 µM, first compound 0.003 µM) 29% | viability, T/C [9] 19.6% | viability, T/C [10] 15.5% | viability, T/C [11] 16.1% | viability, T/C [12] 15.3% | viability, T/C (second compound 3.16 µM, first compound 0.000949 µM) 34% | viability, T/C (second compound 3.16 µM, first compound 0.003 µM) 28.9% | viability, T/C [13] 18.9% | viability, T/C [14] 14.5% | viability, T/C [15] 14.6% | viability, T/C [16] 13.8% | viability, T/C (second compound 10 µM, first compound 0.000949 µM) 36.3% | viability, T/C (second compound 10 µM, first compound 0.003 µM) 31.8% | viability, T/C [17] 24.4% | viability, T/C [18] 17.1% | viability, T/C [19] 18.6% | viability, T/C [20] 17%
< 0.000949 µM: IC50 (second compound 0.1 µM) | IC50 (second compound 0.316 µM) | IC50 (second compound 1 µM) | IC50 (second compound 3.16 µM) | IC50 (second compound 10 µM)

From PubChem BioAssay AID1918995 (Molecular Pharmacology Branch, DTP, NCI, 2023)
